Reference: patent publication US9353075B2, “Disubstituted beta-lactones as inhibitors of N-acylethanolamine acid amidase (NAAA)” (The Regents of the University of California, priority 2011, dated 2016)

Columns and labels:
h-NAAA [1] = target: T1, h-NAAA (Homo sapiens (Human), UniProt Q02083); test: UPLC/MS h-NAAA assay; type: biochemical
Description: NAAA protein preparation (10 μg) was pre-incubated with various concentrations of test compound or vehicle control in 100 mM NaH2PO4, 100 mM Tri Sodium Citrate Dehydrate, 0.1% Triton-X 100, 3 mM DTT, pH 4.5 for 30 min at 37° C. Duplicate samples were then incubated with 50 μM C17:1 10-cis-heptadecenoylethanolamide (Avanti Polar Lipids, Alabaster, Ala.—USA) at 37° C. for 30 minutes. The reaction was terminated by the addition of 0.2 mL of cold methanol containing 1 nmol of heptadecanoic acid (NuChek Prep, Elysian, Minn.—USA) as internal standard. Samples were then analyzed by UPLC/MS. Heptadecenoic and heptadecanoic acids were eluted on an Acquity UPLC BEH C18 column (50 mm length, 2.1 mm i.d., 1.7 μm pore size, Waters) isocratically at 0.5 mL/min for 1.5 min with a solvent mixture of 95% methanol and 5% water, both containing 0.25% Acetic Acid and 5 mM Ammonium Acetate. The column temperature was 40° C. Electrospray ionization was in the negative mode, capillary voltage was 2.7 kV, cone voltage was 45 V, extractor voltage was 3 V. The source temperature was 150° C. with a desolvation temperature of 400° C. N2 was used as drying gas at a cone flow of 100 L/hour and a desolvation flow of […]. The [M−H]-ion was monitored in the selected-ion monitoring mode (m/z values: heptadecenoic acid 267.37, heptadecanoic acid 269.37). Calibration curves were generated using commercial heptadecenoic acid (NuCheck Prep) Inhibition of NAAA activity was calculated as reduction of heptadecenoic acid in the samples compared to vehicle controls. IC50 values were calculated by non-linear regression analysis of log [concentration]/inhibition curves using GraphPad Prism 5 (GraphPad Software Inc., CA—USA) applying a standard slope curve fitting.

h-NAAA [2] = target: T1, h-NAAA; test: Fluorogenic h-NAAA assay; type: biochemical
Description: (§1) The assay was run in Optiplate 96-wells black plates, in a total reaction volume of 200 mL. NAAA protein preparations (4 ng) were pre-incubated for 10 minutes with various concentrations of test compounds or vehicle control (5% DMSO) in 100 mM citrate/phosphate buffer (pH 4.5) containing 3.0 mM DTT, 0.1% Triton X-100, 0.05% BSA, 150 mM NaCl. N-(4-methyl-2-oxo-chromen-7-yl)-hexadecanamide was used as a substrate (5.0 μM) and the reaction carried over for 30 minutes at 37° C. Fluorescence in the samples was quantified in a Perkin Elmer Envision plate reader using an excitation wavelength of 360 nm and emission 460 nm. IC50 values were calculated by non-linear regression analysis of log [concentration]/inhibition curves using GraphPad Prism 5 (GraphPad Software Inc., CA—USA) applying a standard slope curve fitting.
as §1, with “μL.” for “mL.”, “preparation (4.0 μg) was” for “preparations (4 ng) were”, “min” for “minutes”, “The” for “Fluorescence in the”, “were then read” for “was quantified”

Acid Ceramidase (AC) = Acid Ceramidase (AC) (Rattus norvegicus (Rat), UniProt Q6P7S1); test: Acid ceramidase inhibition, recombinant rat AC, LC-MS; type: biochemical; details: read-out: r-AC % inhib. @ 10 μM
Acid Ceramidase (AC), sequence (Q6P7S1 21-394): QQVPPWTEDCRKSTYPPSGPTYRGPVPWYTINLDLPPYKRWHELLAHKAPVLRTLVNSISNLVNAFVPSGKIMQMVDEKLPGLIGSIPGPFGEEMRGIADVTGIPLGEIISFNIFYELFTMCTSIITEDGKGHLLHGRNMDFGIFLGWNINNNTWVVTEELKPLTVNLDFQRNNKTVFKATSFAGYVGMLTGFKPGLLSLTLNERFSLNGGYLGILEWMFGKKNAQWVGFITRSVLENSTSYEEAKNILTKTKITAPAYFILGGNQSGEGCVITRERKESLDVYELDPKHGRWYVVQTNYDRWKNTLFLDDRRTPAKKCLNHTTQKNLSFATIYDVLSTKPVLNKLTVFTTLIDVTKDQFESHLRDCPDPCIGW
Description: The PCR (High Fidelity PCR Master, Roche) product was subcloned into a pEF6-[…] vector (Invitrogen) to construct a mammalian expression vector encoding […]-tagged rat AC. HEK293 cells were transfected with pEF6-rAC-[…] using Super-Fect reagent (Qiagen) and screened with G418 (0.3 mg/mL). Cells were suspended in 20 mM Tris HCl (pH 7.5) containing 0.32M sucrose, sonicated and centrifuged at 800×g for 15 minutes at 4° C. The supernatants were centrifuged again at 12,000×g for 30 minutes at 4° C. The pellets were suspended in phosphate-buffered saline (PBS) and subjected to 2 freeze-thaw cycles at -80° C. The suspensions were centrifuged at 105,000×g for 1 hour at 4° C. The supernatants containing recombinant AC were kept at -80° C. until use. Protein concentration was measured using the bicinchoninic acid (BCA) assay (Pierce). […] Reactions were stopped by addition of a mixture of chloroform/methanol (2:1, vol/vol) containing 1 nmol of heptadecanoic acid (HDA; NuChek Prep). […] HDA was eluted on an XDB Eclipse C18 column isocratically at 2.2 mL/min for 1 minute with a solvent mixture of 95% methanol and 5% water, both containing 0.25% acetic acid and 5 mM ammonium acetate. The column temperature was 50° C. Electrospray ionization (ESI) was in the negative mode, capillary voltage as 4 kV, and fragmentor voltage was 100 V. N2 was used as drying gas at a flow rate of 13 L/min and a temperature of 350° C. Nebulizer pressure was set at 60 psi. We monitored [M-H]- in the selected-ion monitoring (SIM) mode using HDA as internal standard. Calibration curves were generated using commercial lauric acid (Nu-Chek Prep; m/z=199).

[3] = system: 48/80-induced scratching (mast cell degranulation); test: Compound 48/80-induced scratching in mice; type: in vivo, mouse; details: topical, single dose
Description: The methods include the following. Itching in mice was induced with DNFB as previously described. Additional studies were done with 48/80 model (an inducer of mast cell degranulation). 48/80 was given subcutaneously (30 mg per kg).

T1 sequence (Q02083 29-359): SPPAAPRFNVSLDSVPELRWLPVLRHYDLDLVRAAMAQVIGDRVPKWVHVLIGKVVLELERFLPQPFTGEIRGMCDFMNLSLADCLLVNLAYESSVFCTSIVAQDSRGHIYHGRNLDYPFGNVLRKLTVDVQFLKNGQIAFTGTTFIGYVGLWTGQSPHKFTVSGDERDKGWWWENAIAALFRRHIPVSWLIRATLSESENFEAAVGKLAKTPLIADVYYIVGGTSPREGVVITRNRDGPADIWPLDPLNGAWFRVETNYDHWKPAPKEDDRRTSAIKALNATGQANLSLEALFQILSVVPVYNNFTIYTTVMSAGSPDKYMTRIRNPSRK

Question: How did the IC50 (h-NAAA [1]) turn out when `C[C@@H]1OC(=O)[C@@H]1NC(=O)OCCCCCc1ccccc1` [Example 6, 5-phenylpentyl-[(2S,3R)-2-methyl-4-oxooxetan-3-yl]-carbamate] was run?
Answer: Its IC50 is 0.007 µM.

Question: And the IC50 (h-NAAA [2])?
Answer: The IC50 was 0.014 µM.

Question: What about the inhibition at 10 µM (Acid Ceramidase (AC)) of the same compound?
Answer: The inhibition at 10 µM was < 10%.

Question: And the “Dose of maximal effect, 48/80-induced scratching” value [3]?
Answer: The value was 1%.

Question: And the “Lowest effective dose, 48/80-induced scratching” value [3]?
Answer: Its value is 0.01%.

Question: And the 48/80-induced scratching ([3]; 48/80 30 mg per kg s.c.)?
Answer: Its 48/80-induced scratching is “prevents 48/80-induced scratching”.
